Experimental data taken from ChEMBL document CHEMBL5046265, “Synthesis of Hemiprotonic Phenanthroline-Phenanthroline+ Compounds with both Antitumor and Antimicrobial Activity” (J Med Chem, 2022).
Calls of active or inactive are those of the source.

What was measured:
Type in all cases: functional, organism-based
Conditions in all cases: time 9.0 day
Mus musculus [1] = test: Anti-Cryptococcal activity against Cryptococcus neoformans infected pneumonia and encephalitis C57BL/6J mouse model assessed as improvement in clinical symptoms at 8 mg/kg, iv administered once a day for 9 days
Mus musculus [2] = test: Anti-Cryptococcal activity against Cryptococcus neoformans infected pneumonia and encephalitis C57BL/6J mouse model assessed as increase in body weight at 8 mg/kg, iv administered once a day for 9 days
Mus musculus [3] = test: Anti-Cryptococcal activity against Cryptococcus neoformans infected pneumonia and encephalitis C57BL/6J mouse model assessed as reduction in brain edema at 8 mg/kg, iv administered once a day for 9 days and measured at 24 hrs at last post-dosage
Mus musculus [4] = test: Anti-Cryptococcal activity against Cryptococcus neoformans infected pneumonia and encephalitis C57BL/6J mouse model assessed as reduction in pneumonia symptoms at 8 mg/kg, iv administered once a day for 9 days and measured at 24 hrs at last post-dosage

Measured: Activity

OC(Cn1cncn1)(Cn1cncn1)c1ccc(F)cc1F
active: all assays above
